This note sets out measurements from patent publication US20140243292A1, “SUBSITUTED 2-(CHROMAN-6-YLOXYL)-THIAZOLES AND THEIR USE AS PHARMACEUTICALS” (Sanofi, priority 2011, published 2014).

Broadly, the IC50 is the midpoint of a concentration-inhibition curve.

Where a name gives a salt, the structure may show the parent alone.

This assay concerns the target T1, human NCX1 (Homo sapiens, UniProt P32418).
T1 construct: expressed in transfected cells
In words: NCX1 inhibition, reverse mode (Ca2+ influx into cells), FLIPR Fluo-4 assay. In kind it is cell-based. The conditions noted are these: inhibition of NCX1 in reverse mode (Ca2+ influx into cells); read-out: NCX1rv IC50. The procedure, abridged: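 Max−min Fluo-4 fluorescence (520 nm, FLIPR, 240 points at 2 s) after 20 µM final gramicidin, which drives Na+ loading and reverse-mode Ca2+ entry, gave % inhibition and IC50. Test compound was preincubated 45 min at 16 °C with Fluo-4-loaded CHO cells stably expressing human NCX1, in pH 7.4 buffer containing 3.5 mM CaCl2 and probenecid.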

As to `O=C(NCc1nnc2ccccn12)c1cnc(Oc2ccc3c(c2)CCC(c2cccc(F)c2)O3)s1` (centres unmarked) [compound 17, hydrochloride], the IC50 was determined as 200 nM. To `Cc1noc(C)c1CCNC(=O)c1cnc(Oc2ccc3c(c2)CCC(c2cccc(O)c2)O3)s1` (centres unmarked) [compound 173] belongs 2300 nM; to `Cc1ccc(F)cc1C1CCc2cc(Oc3ncc(C(=O)N4CC[C@@H](O)C4)s3)ccc2O1` (some centres unmarked) [compound 356], 540 nM; to `CN1CCOc2cc(S(=O)(=O)NCc3cnc(Oc4ccc5c(c4)CCC(c4ccccc4)O5)s3)ccc21` (centres unmarked) [compound 123], 1100 nM. To `Cc1nccc(CNC(=O)c2cnc(Oc3ccc4c(c3)CCC(c3ccccc3)O4)s2)n1` (centres unmarked) [compound 21] belongs 100 nM. To `CCn1nccc1C(=O)NCc1cnc(Oc2ccc3c(c2)CCC(c2ccccc2)O3)s1` (centres unmarked) [compound 70] belongs 300 nM. In the case of `Cc1cc(C)nc(CNC(=O)c2cnc(Oc3ccc4c(c3)CCC(c3ccccc3)O4)s2)n1` (centres unmarked) [compound 33], the IC50 was 200 nM.

Regarding `Cn1nccc1CNCc1cnc(Oc2ccc3c(c2)CCC(c2ccccc2)O3)s1` (centres unmarked) [compound 146], the IC50 was determined as 200 nM.

On to `O=C(CN1C(=O)CNC1=O)NCc1cnc(Oc2ccc3c(c2)CCC(c2ccccc2)O3)s1` (centres unmarked) [compound 95], for which the IC50 came out at 600 nM. To `O=C(CN1CCCC1)NCc1cnc(Oc2ccc3c(c2)CCC(c2ccccc2)O3)s1` (centres unmarked) [compound 346, hydrochloride] belongs 170 nM; to `c1ccc(C2CCc3cc(Oc4ncc(CNCC5CC5)s4)ccc3O2)cc1` (centres unmarked) [compound 120], 300 nM.

Regarding `Cc1ccccc1C1CCc2cc(Oc3nc(C)c(C(=O)N4CC[C@@H](O)C4)s3)ccc2O1` (some centres unmarked) [compound 336], the IC50 was found to be 600 nM. `Cc1ccc(F)cc1C1CCc2cc(Oc3ncc(C(=O)NCc4ccno4)s3)ccc2O1` (centres unmarked) [compound 344]: the IC50 is 800 nM. To `O=C(c1cnc(Oc2ccc3c(c2)CC[C@@H](c2ccccc2)O3)s1)N1CCC[C@H]1CO` [compound 205] belongs 300 nM; to `CCC(C)[C@H](NC(=O)c1cnc(Oc2ccc3c(c2)CC[C@@H](c2ccccc2)O3)s1)C(=O)OC` (some centres unmarked) [compound 183], 1200 nM; to `COC(=O)CNC(=O)c1cnc(Oc2ccc3c(c2)CC[C@@H](c2ccccc2)O3)s1` [compound 181], 200 nM.

With `CC(NCc1cnc(Oc2ccc3c(c2)CCC(c2ccccc2)O3)s1)C(C)(C)C` (centres unmarked) [compound 105], the IC50 came out at 800 nM.

With `CCC(CC)NCc1cnc(Oc2ccc3c(c2)CCC(c2ccccc2)O3)s1` (centres unmarked) [compound 106], the IC50 is 500 nM. As to `O=C(NCCO)c1csc(Oc2ccc3c(c2)CC[C@@H](c2ccccc2)O3)n1` [compound 350], the IC50 worked out at 120 nM. To `O=C(NCc1ccno1)c1cnc(Oc2ccc3c(c2)CCC(c2cnccn2)O3)s1` (centres unmarked) [compound 309] belongs 4700 nM; to `COC(=O)[C@@H](NC(=O)c1cnc(Oc2ccc3c(c2)CCC(c2cccnc2)O3)s1)C(C)(C)C` (some centres unmarked) [compound 264], 3100 nM; to `CCn1nccc1CNC(=O)c1cnc(Oc2cc3c(cc2C)OC(c2ccccc2C)CC3)s1` (centres unmarked) [compound 359], 1500 nM. For `COc1cccc(C2CCc3cc(Oc4ncc(C(=O)NCCO)s4)ccc3O2)c1F` (centres unmarked) [compound 360], the IC50 was 1800 nM. The same measure for `O=C(NCCO)c1cnc(Oc2ccc3c(c2)CCC(c2cccnc2)O3)s1` (centres unmarked) [compound 249]: 1400 nM; for `Cc1ccccc1C1CCc2cc(Oc3ncc(CNC(=O)CN4C(=O)CNC4=O)s3)ccc2O1` (centres unmarked) [compound 328]: 900 nM. The same measure for `Cc1ccccc1C1CCc2cc(Oc3ncc(C(=O)N4CC[C@@H](O)C4)s3)ccc2O1` (some centres unmarked) [compound 300]: 200 nM.

With `CCn1cc(CNC(=O)c2cnc(Oc3ccc4c(c3)CCC(c3ccccc3)O4)s2)cn1` (centres unmarked) [compound 1], the IC50 stood at 300 nM. As to `C[C@H](NC(=O)c1cnc(Oc2ccc3c(c2)CCC(c2ccccc2)O3)s1)c1nccs1` (some centres unmarked) [compound 54], the IC50 came to 200 nM.

Consider `O=C(c1cnc(Oc2ccc3c(c2)CC[C@@H](c2ccccc2)O3)s1)N1CC[C@H]2CNC[C@H]21` [compound 283, hydrochloride], for which the IC50 turned out to be 600 nM. To `Cc1c(CNC(=O)c2cnc(Oc3ccc4c(c3)CC[C@H](c3ccccc3)O4)s2)cnn1C` [compound 63] belongs 600 nM. To `CCOC(=O)C(CNC(=O)c1cnc(Oc2ccc3c(c2)CC[C@@H](c2ccccc2)O3)s1)CC(C)C` (some centres unmarked) [compound 230] belongs 1500 nM.

With `OCCN(CCO)Cc1cnc(Oc2ccc3c(c2)CC[C@@H](c2ccccc2)O3)s1` [compound 258], the IC50 was found to be 200 nM. To `CCn1nccc1CNC(=O)c1cnc(Oc2ccc3c(c2)CCC(c2ccccc2)O3)s1` (centres unmarked) [compound 3] belongs 400 nM. To `CCn1cc(S(=O)(=O)NCc2cnc(Oc3ccc4c(c3)CCC(c3ccccc3)O4)s2)cn1` (centres unmarked) [compound 132] belongs 300 nM; to `Nc1cc(CNC(=O)c2cnc(Oc3ccc4c(c3)CCC(c3cccc(F)c3)O4)s2)ccn1` (centres unmarked) [compound 12], 200 nM. To `O=C(O)CNCc1cnc(Oc2ccc3c(c2)CC[C@@H](c2ccccc2)O3)s1` [compound 246] belongs 600 nM; to `NC[C@@H]1[C@H]2CC[C@H](C2)[C@H]1NC(=O)c1cnc(Oc2ccc3c(c2)CC[C@@H](c2ccccc2)O3)s1` [compound 293], 1000 nM.

With `c1ccc(C2CCc3cc(Oc4ncc(CNC5CCC5)s4)ccc3O2)cc1` (centres unmarked) [compound 110], the IC50 is 200 nM. The same measure for `CC1CN(C(=O)c2cnc(Oc3ccc4c(c3)CC[C@@H](c3ccccc3)O4)s2)CC1C(=O)O` (some centres unmarked) [compound 235]: 500 nM; for `O=C(NCC1CCCCN1)c1cnc(Oc2ccc3c(c2)CC[C@@H](c2ccccc2)O3)s1` (some centres unmarked) [compound 287]: 500 nM.

On to `CC(NC(=O)c1cnc(Oc2ccc3c(c2)CCC(c2ccccc2)O3)s1)c1ccncc1` (centres unmarked) [compound 6], for which the IC50 turned out to be 400 nM.

Take `O=C(NCc1ccno1)c1cnc(Oc2ccc3c(c2)CCC(c2cccc(F)c2)O3)s1` (centres unmarked) [compound 49]: the IC50 was 100 nM. The same measure for `CC[C@H](C)[C@H](NC(=O)c1cnc(Oc2ccc3c(c2)CCC(c2cccnc2)O3)s1)C(=O)OC` (some centres unmarked) [compound 261]: 3100 nM.

Regarding `CN(CC(=O)O)C(=O)c1cnc(Oc2ccc3c(c2)CC[C@@H](c2ccccc2)O3)s1` [compound 190], the IC50 is 900 nM. The same measure for `O=C(NCc1ccnc(Cl)c1)c1cnc(Oc2ccc3c(c2)CCC(c2ccc(Cl)nc2)O3)s1` (centres unmarked) [compound 278, hydrochloride]: 1300 nM. To `Cc1noc(C)c1CCNC(=O)c1cnc(Oc2ccc3c(c2)CCC(c2ccccc2)O3)s1` (centres unmarked) [compound 34] belongs 200 nM; to `Cc1ncc(S(=O)(=O)NCc2cnc(Oc3ccc4c(c3)CCC(c3ccccc3)O4)s2)n1C` (centres unmarked) [compound 127], 1100 nM. To `c1ccc(C2CCc3cc(Oc4ncc(CNCCn5cccn5)s4)ccc3O2)cc1` (centres unmarked) [compound 149] belongs 300 nM; to `O=C(NCCO)c1cnc(Oc2ccc3c(c2)CCC(c2cncc(F)c2)O3)s1` (centres unmarked) [compound 253], 600 nM. Take “2-((S)-2-Phenyl-chroman-6-yloxy)-thiazole-5-carboxylic acid (3-amino-propyl)-amide [compound 289]”: the IC50 came to 300 nM.
